Molecules are shown by their SMILES.

Data on two compounds can be found in patent publication US10537104B2, “Insecticide mixtures comprising loline alkaloids” (SYNGENTA PARTICIPATIONS AG, priority 2016, dated 2020).

One series has as its system Thrips tabaci. The series is described as follows: Tests against Thrips tabaci: sprayed sunflower leaf discs, mortality. In kind it is in vivo. The following applies: 6 days after infestation. An excerpt:
(§1) A synergistic effect exists whenever the action of an active ingredient combination is greater than the sum of the actions of the individual components. The action to be expected E for a given active ingredient combination obeys the so-called COLBY formula and can be calculated as follows (COLBY, S. R. “Calculating synergistic and antagonistic responses of herbicide combination”. Weeds, Vol. 15, pages 20-22 1967):
(§2) According to Colby, the expected (additive) action of active ingredients A+B using p+q ppm of active ingredient is
(§3) If the action actually observed O is greater than the expected action E, then the action of the combination is super-additive, i.e. there is a synergistic effect. In mathematical terms, synergism corresponds to a positive value for the difference of (O-E). In the case of purely complementary addition of activities (expected activity), said difference (O-E) is zero. A negative value of said difference (O-E) signals a loss of activity compared to the expected activity.
Component (A1) is a mixture of NAL, NFL and NANL in a weight ratio of about approximately 1:4:2. […]
Sunflower leaf discs were placed on agar in 24-well microtiter plates and sprayed with aqueous test solutions prepared from DMSO stock solutions. […] The samples were assessed for mortality 6 days after infestation.

In the next series the test system is Myzus persicae. As to the kind of experiment: Tests against Myzus persicae: sprayed sunflower leaf discs, mortality. The format is in vivo. The following applies: 6 days after infestation.
Text: as §1, §2, §3
Component (A1) is a mixture of NAL, NFL and NANL in a weight ratio of about approximately 1:4:2. Stock solutions of thiamethoxam and flonicamid were prepared respectively by dissolving the technical active ingredient in DMSO. The aqueous test solutions were prepared by mixing together the appropriate stock solutions to the desired concentrations.
Tests Against Myzus persicae
Sunflower leaf discs were placed on agar in a 24-well microtiter plate and sprayed with aqueous test solutions prepared from DMSO stock solutions. After drying, the leaf discs were infested with an aphid population of mixed ages. The samples were assessed for mortality 6 days after infestation.

In the case of `N#CCNC(=O)c1cnccc1C(F)(F)F` [Flonicamid, flonicamid], the “% Mortality Measured” value with Thrips tabaci (flonicamid 100 ppm alone) is 0%; in the series on Thrips tabaci (flonicamid 200 ppm alone) it was 0%; in the series with Myzus persicae (flonicamid 3.125 ppm alone), 0%; in the series on Myzus persicae (flonicamid 6.25 ppm alone), 65%; in the series with Myzus persicae (flonicamid 12.5 ppm alone), 90%.

As to `CN1COCN(Cc2cnc(Cl)s2)/C1=N\[N+](=O)[O-]` [Thiamethoxam, thiamethoxam], in the series on Myzus persicae (Myzus persicae, foliar, 144 h, thiamethoxam 0.4 ppm alone, read-out: % Mortality Measured), the mortality at 0.4 ppm was determined as 0%. Besides, the mortality at 0.8 ppm with Myzus persicae (Myzus persicae, foliar, 144 h, thiamethoxam 0.8 ppm alone, read-out: % Mortality Measured) was 0%. Moreover, the mortality at 1.6 ppm in the series on Myzus persicae (Myzus persicae, foliar, 144 h, thiamethoxam 1.6 ppm alone, read-out: % Mortality Measured) came out at 45%.

What is called mortality is the percentage killed.
